Results on six molecules are retold here after patent US20110230472A1, “RING-FUSED AZOLE DERIVATIVE HAVING PI3K-INHIBITING ACTIVITY” (Shionogi & Co., Ltd., priority 2008, published 2011).

One data set addresses PI-3 kinase γ (Homo sapiens, UniProt P48736). Kind of data set: PI3Kγ inhibitory activity (Ki value), HTRF. In kind it is biochemical. As to conditions: Ki=IC50/(1+10 μM ATP/Km). The essentials:
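IC50 was measured by HTRF over 50-0.05 μmol/L compound and fitted by logistic approximation or two-point linear regression. ATP Km came from Lineweaver-Burk plots of HTRF signal at 0.625-80 μmol/L ATP. Ki = IC50/(1+10 μM/Km).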
(In general: TR-FRET usually uses a lanthanide donor and a delayed reading to cut background.)

The subject of data set [1] is Salmonella typhimurium TA98 line, TA100 line. Kind of data set: FAT test (mutagenicity). As to conditions: TA98 and TA100 lines; non-metabolism-activation and metabolism-activation conditions. Also noted: key: When the mutagenicity is negative, the compound is shown as (−); When positive, the compound is shown as (+). On the procedure:
20 μL of Salmonella enterica subsp. typhimurium (Salmonella typhimurium TA98 line, TA100 line) cryopreserved was inoculated to 10 mL of liquid nutrient medium (2.5% Oxoid nutrient broth No. 2) and then precultured at 37° C. for 10 hours with shaking. Regarding TA98 line, after 9 mL of a bacterial suspension was centrifuged (2000×g, 10 minutes) to remove the culture solution, the bacteria was suspended in 9 mL of Micro F buffer solution (K2HPO4: 3.5 g/L, KH2PO4: 1 g/L, (NH4)2SO4: 1 g/L, tri-sodium citric acid dihydrate: 0.25 g/L, MgSO4.7H2O: 0.1 g/L), and then added to 110 mL of Exposure media (Micro F buffer solution containing biotin: 8 μg/mL, histidine: 0.2 μg/mL, glucose: 8 mg/mL). Regarding TA 100 line, 120 mL of Exposure media was added to 3.16 mL of the bacterial suspension to prepare a test bacterial suspension. 12 μL of a solution of a test substance in DMSO (diluted eight times in a common ratio of 2 from the maximum dose of 50 mg/mL); 12 μL of DMSO as a negative control; 50 μg/mL 4-nitroquinoline-1-oxide solution in DMSO for TA98 line or 0.25 μg/mL 2-(2-furyl)-3-(5-nitro-2-furyl)acrylamide solution in DMSO as a positive control for TA 100 line in the case of a non-metabolism-activation condition; 12 μL of 40 μg/mL 2-aminoanthracene solution in DMSO for TA98 line or 20 μg/mL of 2-aminoanthracene solution in DMSO for TA100 line in the case of a metabolism-activation condition; were each mixed with 588 μL of the test bacterial suspension (in the case of a metabolism activation condition, a mixed solution of 498 μL of the test bacterial suspension and 90 μL S9 mix) and then cultured at 37° C. at 90 minutes with shaking. 460 μL of the bacterial suspension to which a test substance was exposed was mixed with 230 μL of Indicator media (a Micro F buffer solution containing 8 μg/mL biotin, 0.2 μg/mL histidine, 8 mg/mL glucose, and 37.5 μg/mL bromocresol purple). 50 μL thereof was dispensed to microplate 48 wells/dose and then statically cultured at 37° C. for 3 days. In a well containing bacteria which obtained proliferation potency by mutation of the amino acid (histidine) synthetase gene, the change of pH caused the color change from purple to yellow. Thus, in 48 wells per dose, the number of the bacteria-proliferation wells in which the color changed to yellow was counted, compared with a group of negative controls, and then evaluated. When the mutagenicity is negative, the compound is shown as (−). When positive, the compound is shown as (+).

Data set [2] has as its system AKT phosphorylation in human monocyte-like cell line THP-1. Kind of data set: AKT phosphorylation inhibitory activity in MCP-1-stimulated THP-1 cells (ELISA). In kind it is cell-based. The settings on record: 1 μmol/L solution of each compound, MCP-1 stimulation, read-out: AKT phosphorylation inhibition ratio. The procedure, abridged: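 THP-1 cells (6.6×10^6/mL in HBSS) were preincubated 5 min at 37° C with compound at 1 μmol/L (0.2% DMSO), then stimulated with MCP-1 for 30 s. After lysis, phospho-Akt Ser473 was measured by sandwich ELISA (A450); inhibition ratio used no-MCP-1 samples as 0% activity.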
(An ELISA detects its analyte on a solid surface through an enzyme-linked reagent.)

SMILES strings stand for the structures.

Chain of PI-3 kinase γ (P48736 whole entry): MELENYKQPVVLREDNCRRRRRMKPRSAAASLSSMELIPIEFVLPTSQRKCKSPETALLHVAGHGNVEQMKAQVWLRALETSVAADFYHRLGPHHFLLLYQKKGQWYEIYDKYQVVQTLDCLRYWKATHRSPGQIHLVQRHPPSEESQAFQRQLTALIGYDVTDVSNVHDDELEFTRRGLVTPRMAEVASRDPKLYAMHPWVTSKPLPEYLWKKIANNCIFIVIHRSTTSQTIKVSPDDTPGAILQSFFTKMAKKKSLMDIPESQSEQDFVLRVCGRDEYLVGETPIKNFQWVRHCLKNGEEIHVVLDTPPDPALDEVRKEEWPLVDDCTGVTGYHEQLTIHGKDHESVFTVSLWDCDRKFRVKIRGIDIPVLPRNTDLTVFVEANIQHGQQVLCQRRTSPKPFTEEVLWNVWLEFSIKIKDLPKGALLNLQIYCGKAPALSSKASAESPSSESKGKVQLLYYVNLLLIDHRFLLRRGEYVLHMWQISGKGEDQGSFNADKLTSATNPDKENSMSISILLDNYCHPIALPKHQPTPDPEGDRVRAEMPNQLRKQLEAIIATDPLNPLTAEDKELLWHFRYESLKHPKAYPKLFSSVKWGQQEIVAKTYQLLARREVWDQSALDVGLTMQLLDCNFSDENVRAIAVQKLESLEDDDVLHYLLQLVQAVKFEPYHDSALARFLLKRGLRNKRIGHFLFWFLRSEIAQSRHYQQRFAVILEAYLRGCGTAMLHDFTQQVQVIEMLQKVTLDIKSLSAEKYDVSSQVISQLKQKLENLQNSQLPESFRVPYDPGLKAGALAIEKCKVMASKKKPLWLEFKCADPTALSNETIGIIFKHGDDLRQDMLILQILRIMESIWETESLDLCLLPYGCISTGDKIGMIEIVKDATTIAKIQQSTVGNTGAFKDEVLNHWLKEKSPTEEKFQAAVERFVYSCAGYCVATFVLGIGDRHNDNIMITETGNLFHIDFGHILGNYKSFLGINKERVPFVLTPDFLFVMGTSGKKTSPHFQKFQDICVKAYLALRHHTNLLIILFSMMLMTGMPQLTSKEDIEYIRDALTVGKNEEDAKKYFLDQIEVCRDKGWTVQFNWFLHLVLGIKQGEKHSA

In the case of `COc1cc(N2CCc3nc(NC(=O)NCc4cc(=O)[nH]o4)sc3C2)nc(OC)n1` [Compound I-279], at PI-3 kinase γ, the Ki – broadly, a measure of affinity in units of concentration, obtained from inhibition or displacement – is 29 nM.

Turning to `CNC(=O)Nc1cc2n(n1)CCN2c1ccc(S(C)(=O)=O)cc1` [Compound I-89], in data set [1], the “mutagenicity (FAT test)” value is listed as “(−)”.

Take `CN1CCc2cc(N3CCn4nc(NC(=O)c5ccco5)cc43)ccc2C1=O` [Compound I-358]: in data set [2], the inhibition was 95.9%. For the same molecule, in data set [1], the “mutagenicity (FAT test)” value was “(−)”.

As for `CNC(=O)Nc1nc2c(s1)CN(c1ccnc(OC)n1)CC2` [Compound I-142], the “mutagenicity (FAT test)” value in data set [1] is recorded as “(−)”.

Molecule `COc1cc(N2CCc3nc(NC(=O)NCC(=O)O)sc3C2)nc(OC)n1` [Compound I-208] yielded a Ki at PI-3 kinase γ of 22 nM.

As to `CN1CCc2cc(N3CCn4nc(NC(=O)c5cccnc5)cc43)ccc2C1=O` [Compound I-347], the inhibition in data set [2] is 80.6%.
